Source: article PMC12476453, “Chemosensation of the pheromone spermine by the olfactory TAAR-like receptor TAAR348” (Cell Discovery, 2025)

Molecular target: T1, TAAR348 (Petromyzon marinus, UniProt A0A678XLR1)
T1 construct: TAAR-like GPCR overexpressed in HEK293 cells with Gs BRET2 sensors; cryo-EM complex with Gs (Gαs, Gβ, Gγ), NB35 and ScFv16; construct details only in supplement
T1 sequence (A0A678XLR1 1-348): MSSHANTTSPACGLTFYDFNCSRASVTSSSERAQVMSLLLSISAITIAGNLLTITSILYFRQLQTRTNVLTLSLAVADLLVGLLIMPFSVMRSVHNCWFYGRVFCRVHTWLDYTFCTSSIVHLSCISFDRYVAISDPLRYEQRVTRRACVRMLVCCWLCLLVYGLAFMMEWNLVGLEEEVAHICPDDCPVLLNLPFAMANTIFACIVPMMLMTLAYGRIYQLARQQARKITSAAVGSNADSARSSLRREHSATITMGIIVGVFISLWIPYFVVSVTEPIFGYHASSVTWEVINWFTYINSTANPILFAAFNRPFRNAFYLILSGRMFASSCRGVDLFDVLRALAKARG
Experiment: BRET2 G protein trimer dissociation assay (Gs)
Type: cell-based

Which EC50 does the source give for `NCCCNCCCCNCCCN` [spermine] here?
The EC50 was 0.155 ± 0.0069 µM.
